Tests used:
Conditions in all cases: incubation time: 72 h
MDA-MB-453 [1] = assay: normalised viability (% of control), CellTiter-Blue; higher = more viable cells (about 100 = DMSO control)
Outline: (§1)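 384-well plates were pre-loaded with compound in 5 µl medium before 20 µl of breast cancer cell suspension was seeded. Following 72 h incubation, 2.5 µl CellTiter-Blue reagent was added for 2 h at 37 °C. Fluorescence was read at 560/590 nm and plates were normalised to vehicle (100) and a positive kill control (0), checked by Z'-factor. Normalised viability is reported at a single listed concentration of the series.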

MDA-MB-436 [2] = assay: as above
Outline: as §1

DU-4475 [3] = assay: as above
Outline: as §1

BT-549 [4] = assay: as above
Outline: as §1

HCC1599 = assay: normalised viability (% of control), CellTiter-Blue; higher = more viable cells (about 100 = DMSO control)
Description: (§2)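 DSRT, CellTiter-Blue viability, 72 h incubation. Signal is normalised to DMSO and benzethonium chloride controls. Value is the normalised response at dose 3.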

MDA-MB-453 [5] = assay: as above; remark: listed apart in the source
Description: as §2

MDA-MB-436 [6] = assay: as above; remark: listed apart in the source
Description: as §2

SK-BR-3 = assay: as above
Description: as §2

CAL-148 [7] = assay: as above
Description: as §2

MDA-MB-468 = assay: as above
Description: as §2

CAL-85-1 [8] = assay: as above
Description: as §2

BT-474 [9] = assay: as above
Description: as §2

MFM-223 = assay: as above
Description: as §2

HCC1937 [10] = assay: as above
Description: as §2

CAL-120 = assay: as above
Description: as §2

DU-4475 [11] = assay: as above; remark: listed apart in the source
Description: as §2

CAL-51 = assay: as above
Description: as §2

BT-549 [12] = assay: as above; remark: listed apart in the source
Description: as §2

Hs578T [13] = assay: as above
Description: as §2

HCC1143 [14] = assay: as above
Description: as §2

MDA-MB-231 [15] = assay: as above
Description: as §2

HDQ-P1 = assay: as above
Description: as §2

CAL-148 [16] = assay: drug sensitivity score (DSS), CellTox Green (DSS (AUC-based score)); higher = stronger drug effect (viability inhibition or cytotoxicity); extreme values may be limits of the assay
Outline: (§3)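 The drug sensitivity score was computed from the area under the fitted dose-response curve. Breast cancer cell lines in 20 µl suspension went into 384-well plates holding compound at 5 concentrations (10-fold steps over a 10,000-fold, compound-specific range) for 72 h of incubation. CellTox Green fluorescence (485/520 nm) was read before CellTiter-Glo luminescence, the latter after 10 min at room temperature, and each plate was normalised to 0.1 % DMSO and a positive kill control.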

CAL-85-1 [17] = assay: as above
Outline: as §3

BT-474 [18] = assay: as above
Outline: as §3

HCC1937 [19] = assay: as above
Outline: as §3

Hs578T [20] = assay: as above
Outline: as §3

HCC1143 [21] = assay: as above
Outline: as §3

MDA-MB-231 [22] = assay: as above
Outline: as §3

## CCN(CCCOc1ccc2c(Nc3cc(CC(=O)Nc4cccc(F)c4)[nH]n3)ncnc2c1)CCOP(=O)(O)O [Barasertib]
MDA-MB-453 [1]; 0.3 nM
  normalised viability: 104%
MDA-MB-453 [1]; 3 nM
  normalised viability: 92.8%
MDA-MB-453 [1]; 10 nM
  normalised viability: 65.6%
MDA-MB-436 [2]; 1 nM
  normalised viability: 126%
MDA-MB-436 [2]; 100 nM
  normalised viability: 56.5%
MDA-MB-436 [2]; 1000 nM
  normalised viability: 88.1%
DU-4475 [3]; 0.3 nM
  normalised viability: 112%
DU-4475 [3]; 3 nM
  normalised viability: 105%
DU-4475 [3]; 10 nM
  normalised viability: 91.6%
BT-549 [4]; 1 nM
  normalised viability: 93.5%
BT-549 [4]; 100 nM
  normalised viability: 69.1%
BT-549 [4]; 1000 nM
  normalised viability: 69.8%
HCC1599; 10 nM
  normalised viability: 101%
MDA-MB-453 [5]; 1 nM
  normalised viability: 108%
MDA-MB-436 [6]; 10 nM
  normalised viability: 113%
SK-BR-3; 10 nM
  normalised viability: 68.3%
CAL-148 [7]; 1 nM
  normalised viability: 102%
MDA-MB-468; 10 nM
  normalised viability: 99.4%
CAL-85-1 [8]; 1 nM
  normalised viability: 95.5%
BT-474 [9]; 10 nM
  normalised viability: 90.2%
MFM-223; 10 nM
  normalised viability: 93.4%
HCC1937 [10]; 10 nM
  normalised viability: 101%
CAL-120; 10 nM
  normalised viability: 88.1%
DU-4475 [11]; 1 nM
  normalised viability: 102%
CAL-51; 1 nM
  normalised viability: 96%
BT-549 [12]; 10 nM
  normalised viability: 96.8%
Hs578T [13]; 10 nM
  normalised viability: 87.9%
HCC1143 [14]; 10 nM
  normalised viability: 111%
MDA-MB-231 [15]; 10 nM
  normalised viability: 102%
HDQ-P1; 1 nM
  normalised viability: 111%

## COc1cc2ncnc(Nc3ccc(F)c(Cl)c3)c2cc1NC(=O)/C=C/CN1CCCCC1 [Dacomitinib]
CAL-148 [16]
  drug sensitivity score: 0
CAL-85-1 [17]
  drug sensitivity score: 4.64
BT-474 [18]
  drug sensitivity score: 6.2
HCC1937 [19]
  drug sensitivity score: 0
Hs578T [20]
  drug sensitivity score: 0
HCC1143 [21]
  drug sensitivity score: 0
MDA-MB-231 [22]
  drug sensitivity score: 0

## O=C(O)c1ccc(-c2c[nH]c3ncc(-c4ccccc4)cc23)cc1C1CCCC1
CAL-148 [16]
  drug sensitivity score: 0
CAL-85-1 [17]
  drug sensitivity score: 0
BT-474 [18]
  drug sensitivity score: 0
Hs578T [20]
  drug sensitivity score: 0
HCC1143 [21]
  drug sensitivity score: 0
MDA-MB-231 [22]
  drug sensitivity score: 0

## Cn1c(CCCC(=O)O)nc2cc(N(CCCl)CCCl)ccc21 [Bendamustine]
CAL-148 [16]
  drug sensitivity score: 0
CAL-85-1 [17]
  drug sensitivity score: 0
BT-474 [18]
  drug sensitivity score: 0
HCC1937 [19]
  drug sensitivity score: 0
HCC1143 [21]
  drug sensitivity score: 0
MDA-MB-231 [22]
  drug sensitivity score: 4.63
MDA-MB-453 [1]; 3 nM
  normalised viability: 125%
MDA-MB-453 [1]; 30 nM
  normalised viability: 108%
MDA-MB-453 [1]; 100 nM
  normalised viability: 106%
MDA-MB-436 [2]; 10 nM
  normalised viability: 94.7%
MDA-MB-436 [2]; 1000 nM
  normalised viability: 70.4%
MDA-MB-436 [2]; 10000 nM
  normalised viability: 116%
DU-4475 [3]; 3 nM
  normalised viability: 90%
DU-4475 [3]; 30 nM
  normalised viability: 102%
DU-4475 [3]; 100 nM
  normalised viability: 101%
BT-549 [4]; 10 nM
  normalised viability: 107%
BT-549 [4]; 1000 nM
  normalised viability: 101%
BT-549 [4]; 10000 nM
  normalised viability: 101%
HCC1599; 100 nM
  normalised viability: 105%
MDA-MB-453 [5]; 10 nM
  normalised viability: 112%
MDA-MB-436 [6]; 100 nM
  normalised viability: 83.4%
SK-BR-3; 100 nM
  normalised viability: 67.7%
CAL-148 [7]; 10 nM
  normalised viability: 108%
MDA-MB-468; 100 nM
  normalised viability: 96.3%
CAL-85-1 [8]; 10 nM
  normalised viability: 102%
BT-474 [9]; 100 nM
  normalised viability: 108%
MFM-223; 100 nM
  normalised viability: 102%
HCC1937 [10]; 100 nM
  normalised viability: 97.4%
CAL-120; 100 nM
  normalised viability: 88.2%
DU-4475 [11]; 10 nM
  normalised viability: 120%
CAL-51; 10 nM
  normalised viability: 106%
BT-549 [12]; 100 nM
  normalised viability: 109%
Hs578T [13]; 100 nM
  normalised viability: 83.7%
HCC1143 [14]; 100 nM
  normalised viability: 105%
MDA-MB-231 [15]; 100 nM
  normalised viability: 93.2%
HDQ-P1; 10 nM
  normalised viability: 112%
